Measurements published in patent US11191768B2, “Histone acetyltransferase activators and uses thereof” (The Trustees of Columbia University in the City of New York, priority 2014, dated 2021).

What was measured:
[1] = cited from earlier work
YAC128 mice = assay: Accelerating rotarod in the YAC128 Huntington disease model; type: in vivo; settings: YF2 5 mg/kg i.p. daily from age 2 months
Experimental: HAT activator YF2 (U.S. patent application Ser. No. 13/493,490; herein incorporated by reference in its entirety) was tested in the YAC128 Huntington disease model. Animals were treated with YF2 (5 mg/kg, i.p, daily) or vehicle, starting at the age of 2 months.

Structure (SMILES) | Solubility [1] | Rotarod performance of YF2-treated YAC128 mice versus WT mice (YAC128 mice; female mice, 6 months of age, vs WT+YF2 p=0.12734, vs WT+vehicle p=0.1690) | Rotarod performance of YF2-treated YAC128 mice versus WT mice (YAC128 mice; male mice, 4 month old, vs WT+YF2 p=0.1946, vs WT+vehicle p=0.0792)
CCOc1ccccc1C(=O)Nc1ccc(Cl)c(C(F)(F)F)c1 [CTB] | insoluble |  | 
CCCCCCCCCCCCCCCc1cccc(OCC)c1C(=O)Nc1ccc(Cl)c(C(F)(F)F)c1 [CTPB] | insoluble |  | 
CCOc1cccc(OCCN(C)C)c1C(=O)Nc1ccc(Cl)c(C(F)(F)F)c1 [YF2] |  | significance was lost | significance was lost
